Data from ChEMBL document CHEMBL1201862, “PubChem BioAssay data set” (2004).
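Protocol summary: plate cells (96-well), add compound at 5 concentrations, incubate 48 h, interpolate endpoints linearly. GI50 marks 50% less growth.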 Calls of active or inactive are those of the source. No stated cut-off is given here; in the data, active = GI50 up to about 1.1 µM and inactive = higher.

Legend:
Experiment in all cases: NCI anticancer screen, dose series, 48 h
UO-31 = test system: UO-31
SNB-19 = test system: SNB-19
Hs-578T = test system: Hs-578T
HCT-116 = test system: HCT-116
SN12C = test system: SN12C
IGROV-1 = test system: IGROV-1
SK-MEL-28 = test system: SK-MEL-28
HOP-92 = test system: HOP-92
SW-620 = test system: SW-620
K562 = test system: K562
NCI-H522 = test system: NCI-H522
LOX IMVI = test system: LOX IMVI
MCF7 = test system: MCF7
UACC-257 = test system: UACC-257
OVCAR-3 = test system: OVCAR-3
EKVX = test system: EKVX
CAKI-1 = test system: CAKI-1
CCRF-CEM = test system: CCRF-CEM
ACHN = test system: ACHN
NCI-H23 = test system: NCI-H23
HCC 2998 = test system: HCC 2998
PC-3 = test system: PC-3
UACC-62 = test system: UACC-62
NCI/ADR-RES = test system: NCI/ADR-RES
HCT-15 = test system: HCT-15
786-0 = test system: 786-0
A498 = test system: A498
T47D = test system: T47D
HT-29 = test system: HT-29
HOP-62 = test system: HOP-62
COLO 205 = test system: COLO 205
DU-145 = test system: DU-145
SF-268 = test system: SF-268
HL-60 = test system: HL-60
NCI-H460 = test system: NCI-H460
MDA-N = test system: MDA-N
MOLT-4 = test system: MOLT-4
OVCAR-5 = test system: OVCAR-5
RPMI-8226 = test system: RPMI-8226
BT-549 = test system: BT-549
SK-MEL-2 = test system: SK-MEL-2
MDA-MB-435 = test system: MDA-MB-435
MDA-MB-231 = test system: MDA-MB-231
SNB-75 = test system: SNB-75
OVCAR-8 = test system: OVCAR-8
SK-MEL-5 = test system: SK-MEL-5
A549 = test system: A549
SF-539 = test system: SF-539
SK-OV-3 = test system: SK-OV-3
M14 = test system: M14
OVCAR-4 = test system: OVCAR-4
U-251 = test system: U-251
Malme-3M = test system: Malme-3M
TK-10 = test system: TK-10
NCI-H226 = test system: NCI-H226
KM12 = test system: KM12
SF-295 = test system: SF-295
RXF 393 = test system: RXF 393
SR = test system: SR

Measured: GI50

c1ccc(CCCN2C3CCC2CN(CCOC(c2ccccc2)c2ccccc2)C3)cc1
4.72 µM: HCT-15
inactive: UO-31 12.2 µM | SNB-19 14.6 µM | Hs-578T 13.9 µM | HCT-116 7.05 µM | SN12C 12.1 µM | IGROV-1 13.8 µM | SK-MEL-28 13.3 µM | HOP-92 12.5 µM | SW-620 15.6 µM | K562 3.91 µM | NCI-H522 10.9 µM | LOX IMVI 12.1 µM | MCF7 12.6 µM | UACC-257 8.49 µM | OVCAR-3 13.2 µM | EKVX 7.46 µM | CAKI-1 11.3 µM | CCRF-CEM 9.82 µM | ACHN 13.4 µM | NCI-H23 11.1 µM | HCC 2998 5.21 µM | PC-3 6.43 µM | UACC-62 12.9 µM | NCI/ADR-RES 8.17 µM | 786-0 10 µM | A498 10.1 µM | T47D 3.24 µM | HT-29 3.58 µM | HOP-62 13.5 µM | COLO 205 1.68 µM | DU-145 16.4 µM | SF-268 14 µM | HL-60 5.69 µM | NCI-H460 8.75 µM | MDA-N 13.2 µM | MOLT-4 8.43 µM | OVCAR-5 12.7 µM | RPMI-8226 3.11 µM | BT-549 12.4 µM | SK-MEL-2 10.6 µM | MDA-MB-435 12.4 µM | MDA-MB-231 8.3 µM | SNB-75 5.41 µM | OVCAR-8 11.4 µM | SK-MEL-5 3.3 µM | A549 13.3 µM | SF-539 8.39 µM | SK-OV-3 13.7 µM | M14 4.99 µM | OVCAR-4 10.2 µM | U-251 8.04 µM | Malme-3M 12.5 µM | TK-10 12.5 µM | NCI-H226 11.3 µM | KM12 5.66 µM | SF-295 12.2 µM

CCN(CC)C1=Nc2ccccc2-n2c(C)cnc2C1
> 100 µM: HCT-15
inactive: UO-31 > 88.7 µM | SNB-19 > 100 µM | Hs-578T > 100 µM | HCT-116 > 100 µM | SN12C > 100 µM | IGROV-1 > 100 µM | SK-MEL-28 > 100 µM | HOP-92 > 100 µM | SW-620 > 100 µM | K562 > 100 µM | NCI-H522 > 100 µM | LOX IMVI > 100 µM | MCF7 > 100 µM | UACC-257 > 61.5 µM | OVCAR-3 > 100 µM | EKVX > 100 µM | CAKI-1 > 100 µM | CCRF-CEM > 100 µM | ACHN > 100 µM | NCI-H23 > 100 µM | HCC 2998 > 100 µM | PC-3 > 100 µM | UACC-62 > 100 µM | NCI/ADR-RES > 100 µM | 786-0 > 100 µM | A498 > 100 µM | T47D > 100 µM | HT-29 > 100 µM | RXF 393 > 100 µM | COLO 205 > 100 µM | DU-145 > 100 µM | SF-268 > 100 µM | HL-60 > 100 µM | NCI-H460 > 100 µM | MDA-N > 100 µM | MOLT-4 > 100 µM | OVCAR-5 > 100 µM | RPMI-8226 95.5 µM | BT-549 > 100 µM | SK-MEL-2 > 100 µM | MDA-MB-435 > 100 µM | MDA-MB-231 > 100 µM | SNB-75 > 100 µM | OVCAR-8 > 100 µM | SK-MEL-5 > 100 µM | A549 > 100 µM | SF-539 > 100 µM | SK-OV-3 > 100 µM | M14 > 100 µM | OVCAR-4 > 100 µM | U-251 > 100 µM | Malme-3M > 100 µM | TK-10 > 100 µM | NCI-H226 > 100 µM | KM12 > 100 µM | SF-295 > 100 µM

Cc1ccc(S(=O)(=O)OC2C(C3COC(C)(C)O3)OC3OC(C)(C)OC32)cc1 (stereo not given)
inactive: UO-31 > 100 µM | SNB-19 > 100 µM | Hs-578T > 100 µM | HCT-116 > 100 µM | SN12C > 100 µM | IGROV-1 > 100 µM | SK-MEL-28 > 100 µM | HOP-92 > 100 µM | SW-620 > 100 µM | K562 > 100 µM | NCI-H522 > 100 µM | LOX IMVI > 100 µM | UACC-257 > 100 µM | OVCAR-3 > 100 µM | EKVX > 100 µM | CAKI-1 > 100 µM | CCRF-CEM > 100 µM | ACHN > 100 µM | NCI-H23 > 100 µM | HCC 2998 > 100 µM | PC-3 > 100 µM | UACC-62 > 100 µM | NCI/ADR-RES > 100 µM | 786-0 > 100 µM | A498 > 100 µM | T47D > 100 µM | HT-29 > 100 µM | RXF 393 > 100 µM | HOP-62 > 100 µM | DU-145 > 100 µM | SF-268 > 100 µM | NCI-H460 > 100 µM | MDA-N > 100 µM | MOLT-4 > 100 µM | OVCAR-5 > 100 µM | BT-549 > 100 µM | SK-MEL-2 > 100 µM | MDA-MB-435 > 100 µM | MDA-MB-231 > 100 µM | SNB-75 > 100 µM | OVCAR-8 > 100 µM | SK-MEL-5 > 100 µM | A549 > 100 µM | M14 > 100 µM | SR > 100 µM | OVCAR-4 > 100 µM | U-251 > 100 µM | Malme-3M > 100 µM | TK-10 > 100 µM | NCI-H226 > 100 µM | KM12 > 100 µM | SF-295 > 100 µM
> 100 µM: HCT-15

Cc1nnc2sc(N/N=C/c3ccccc3)nn12
> 100 µM: HCT-15
inactive: UO-31 > 100 µM | SNB-19 > 100 µM | Hs-578T > 100 µM | HCT-116 > 100 µM | SN12C > 100 µM | IGROV-1 > 100 µM | SK-MEL-28 > 100 µM | SW-620 > 100 µM | K562 > 100 µM | NCI-H522 > 100 µM | LOX IMVI > 100 µM | MCF7 > 100 µM | UACC-257 > 100 µM | OVCAR-3 > 100 µM | EKVX > 100 µM | CAKI-1 > 100 µM | CCRF-CEM > 100 µM | ACHN > 100 µM | NCI-H23 > 100 µM | PC-3 > 100 µM | UACC-62 23.5 µM | NCI/ADR-RES > 100 µM | 786-0 > 100 µM | A498 > 100 µM | T47D > 100 µM | HT-29 > 100 µM | RXF 393 > 100 µM | HOP-62 > 100 µM | COLO 205 > 100 µM | DU-145 > 100 µM | SF-268 61.2 µM | NCI-H460 > 100 µM | MDA-N > 100 µM | MOLT-4 > 100 µM | OVCAR-5 > 100 µM | RPMI-8226 > 100 µM | BT-549 > 100 µM | SK-MEL-2 > 100 µM | MDA-MB-435 > 100 µM | MDA-MB-231 > 100 µM | SNB-75 > 100 µM | OVCAR-8 > 100 µM | SK-MEL-5 > 100 µM | A549 > 100 µM | SF-539 > 100 µM | SK-OV-3 27.4 µM | M14 > 100 µM | OVCAR-4 > 100 µM | U-251 > 100 µM | Malme-3M > 100 µM | TK-10 > 100 µM | NCI-H226 > 100 µM | KM12 > 100 µM | SF-295 > 100 µM

O=c1c(Cc2cccc(Cc3c(O)oc4ccccc4c3=O)c2)c(O)oc2ccccc12
> 100 µM: HCT-15
inactive: UO-31 > 100 µM | SNB-19 > 100 µM | Hs-578T > 100 µM | HCT-116 > 100 µM | SN12C > 100 µM | IGROV-1 > 100 µM | SK-MEL-28 > 100 µM | HOP-92 > 100 µM | SW-620 > 100 µM | K562 > 100 µM | NCI-H522 > 100 µM | LOX IMVI > 100 µM | MCF7 62.4 µM | UACC-257 > 100 µM | OVCAR-3 > 100 µM | EKVX > 100 µM | CAKI-1 > 100 µM | CCRF-CEM > 100 µM | ACHN > 100 µM | NCI-H23 > 100 µM | HCC 2998 > 100 µM | PC-3 > 100 µM | UACC-62 > 100 µM | NCI/ADR-RES > 100 µM | 786-0 > 100 µM | A498 > 100 µM | T47D > 100 µM | HT-29 > 100 µM | RXF 393 > 100 µM | HOP-62 > 100 µM | COLO 205 > 100 µM | DU-145 > 100 µM | SF-268 > 100 µM | HL-60 > 100 µM | NCI-H460 > 100 µM | MDA-N > 100 µM | MOLT-4 > 100 µM | OVCAR-5 > 100 µM | RPMI-8226 > 100 µM | BT-549 > 100 µM | SK-MEL-2 > 100 µM | MDA-MB-435 > 100 µM | MDA-MB-231 > 100 µM | SNB-75 43 µM | OVCAR-8 > 100 µM | SK-MEL-5 > 100 µM | A549 > 100 µM | SF-539 > 100 µM | SK-OV-3 > 100 µM | M14 > 100 µM | OVCAR-4 > 100 µM | U-251 > 100 µM | Malme-3M > 100 µM | TK-10 > 100 µM | NCI-H226 > 100 µM | KM12 > 100 µM | SF-295 > 100 µM
